Experimental data: the NIST ThermoML archive (doi:10.1016/j.jct.2018.12.021)

Test: mn = molality of the nth substance listed, in mol/kg
Settings: for electrical conductivity / mass density: 100 kPa, Liquid; for electrical conductivity: Direct current cell with electrodes; for mass density: Vibrating tube method; for surface tension liquid-gas: Ring tensiometer

CCCCCCCCCCCC[n+]1cscc1C.[Br-] [N-dodecyl-4-methylthiazolium bromide] + O
Settings | electrical conductivity [S/m] | mass density [kg/m3] | surface tension liquid-gas [mN/m]
293.15 K, m1 = 0.0015 | 0.0135 | 998.25 | –
293.15 K, m1 = 0.00206 | 0.0179 | 998.29 | –
293.15 K, m1 = 0.0025 | 0.0221 | 998.31 | –
293.15 K, m1 = 0.00402 | 0.0346 | 998.4 | –
293.15 K, m1 = 0.005 | 0.0428 | 998.45 | –
293.15 K, m1 = 0.00561 | – | 998.48 | –
293.15 K, m1 = 0.00708 | 0.0591 | 998.56 | –
293.15 K, m1 = 0.00803 | – | 998.6 | –
293.15 K, m1 = 0.00906 | 0.0738 | 998.66 | –
293.15 K, m1 = 0.01216 | 0.0813 | 998.81 | –
293.15 K, m1 = 0.01507 | 0.0893 | 998.96 | –
293.15 K, m1 = 0.01759 | – | 999.07 | –
293.15 K, m1 = 0.02033 | 0.106 | 999.21 | –
293.15 K, m1 = 0.02365 | – | 999.38 | –
298.15 K, m1 = 0.0015 | 0.015 | 997.07 | –
298.15 K, m1 = 0.00206 | 0.02 | 997.1 | –
298.15 K, m1 = 0.0025 | 0.0246 | 997.12 | –
298.15 K, m1 = 0.00402 | 0.0387 | 997.2 | –
298.15 K, m1 = 0.005 | 0.0479 | 997.25 | –
298.15 K, m1 = 0.00561 | – | 997.29 | –
298.15 K, m1 = 0.00708 | 0.0662 | 997.36 | –
298.15 K, m1 = 0.00803 | – | 997.42 | –
298.15 K, m1 = 0.00906 | 0.0822 | 997.47 | –
298.15 K, m1 = 0.01216 | 0.0921 | 997.62 | –
298.15 K, m1 = 0.01507 | 0.101 | 997.75 | –
298.15 K, m1 = 0.01759 | – | 997.86 | –
298.15 K, m1 = 0.02033 | 0.12 | 998 | –
298.15 K, m1 = 0.02365 | – | 998.16 | –
303.15 K, m1 = 0.0015 | 0.0166 | 995.66 | 47.78
303.15 K, m1 = 0.00206 | 0.0222 | 995.68 | 43.39
303.15 K, m1 = 0.0025 | 0.0272 | 995.7 | 41.79
303.15 K, m1 = 0.00402 | 0.0428 | 995.77 | 39.49
303.15 K, m1 = 0.005 | 0.0529 | 995.82 | 35.96
303.15 K, m1 = 0.00561 | – | 995.86 | –
303.15 K, m1 = 0.00708 | 0.0733 | 995.93 | 30.49
303.15 K, m1 = 0.00803 | – | 995.98 | –
303.15 K, m1 = 0.00906 | 0.0917 | 996.03 | 30.89
303.15 K, m1 = 0.01216 | 0.103 | 996.17 | 31.36
303.15 K, m1 = 0.01507 | 0.114 | 996.3 | 30.86
303.15 K, m1 = 0.01759 | – | 996.4 | –
303.15 K, m1 = 0.02033 | 0.137 | 996.53 | 30.91
303.15 K, m1 = 0.02365 | – | 996.65 | –
308.15 K, m1 = 0.0015 | 0.0184 | 994.04 | –
308.15 K, m1 = 0.00206 | 0.0244 | 994.06 | –
308.15 K, m1 = 0.0025 | 0.03 | 994.08 | –
308.15 K, m1 = 0.00402 | 0.047 | 994.13 | –
308.15 K, m1 = 0.005 | 0.0581 | 994.18 | –
308.15 K, m1 = 0.00561 | – | 994.21 | –
308.15 K, m1 = 0.00708 | 0.0803 | 994.28 | –
308.15 K, m1 = 0.00803 | – | 994.33 | –
308.15 K, m1 = 0.00906 | 0.1 | 994.37 | –
308.15 K, m1 = 0.01216 | 0.114 | 994.49 | –
308.15 K, m1 = 0.01507 | 0.127 | 994.61 | –
308.15 K, m1 = 0.01759 | – | 994.69 | –
308.15 K, m1 = 0.02033 | 0.15 | 994.82 | –
308.15 K, m1 = 0.02365 | – | 994.89 | –
313.15 K, m1 = 0.0015 | 0.02 | 992.22 | –
313.15 K, m1 = 0.00206 | 0.0267 | 992.23 | –
313.15 K, m1 = 0.0025 | 0.0329 | 992.24 | –
313.15 K, m1 = 0.00402 | 0.0515 | 992.28 | –
313.15 K, m1 = 0.005 | 0.0634 | 992.31 | –
313.15 K, m1 = 0.00561 | – | 992.34 | –
313.15 K, m1 = 0.00708 | 0.0877 | 992.39 | –
313.15 K, m1 = 0.00803 | – | 992.43 | –
313.15 K, m1 = 0.00906 | 0.11 | 992.47 | –
313.15 K, m1 = 0.01216 | 0.125 | 992.61 | –
313.15 K, m1 = 0.01507 | 0.138 | 992.72 | –
313.15 K, m1 = 0.01759 | – | 992.81 | –
313.15 K, m1 = 0.02033 | 0.162 | 992.9 | –
313.15 K, m1 = 0.02365 | – | 993 | –
